# According to ChEMBL document CHEMBL3885881, “DrugMatrix”:
# Organism: Rattus norvegicus
# Assay: DrugMatrix - Regimen: Daily Repeat
# Format: toxicity, organism-based, Sprague-Dawley
# Parameters: regimen Daily Repeat, gender Male, age 6-8 weeks
# Conditions: in vivo, po, route oral GAVAGE, vehicle .5 % CMC; for ABSOLUTE BASOPHIL / ABSOLUTE EOSINOPHIL / ABSOLUTE LYMPHOCYTE / ABSOLUTE MONOCYTE / ABSOLUTE SEGMENTED NEUTROPHIL / BASOPHIL / EOSINOPHIL / ERYTHROCYTE COUNT / HEMATOCRIT / HEMOGLOBIN / LEUKOCYTE COUNT / LYMPHOCYTE / MEAN CORPUSCULAR HEMOGLOBIN / MEAN CORPUSCULAR HEMOGLOBIN CONCENTRATION / MEAN CORPUSCULAR VOLUME / MONOCYTE / NEUTROPHIL / NUCLEATED RED BLOOD CELLS / PLATELET COUNT: tissue Blood; for ALANINE AMINOTRANSFERASE / ALBUMIN / ALKALINE PHOSPHATASE / ASPARTATE AMINOTRANSFERASE / BLOOD UREA NITROGEN / CARBON DIOXIDE / CHLORIDE / CHOLESTEROL / CREATINE PHOSPHOKINASE / CREATININE / GLUCOSE / LACTATE DEHYDROGENASE / LIPASE / PHOSPHORUS / POTASSIUM / SODIUM / TOTAL BILIRUBIN / TOTAL PROTEIN / URIC ACID: tissue Plasma
# [1] = 100 mg/kg, 120 h, dose level Low, time 5 day
# [2] = 1503 mg/kg, 72 h, dose level High, time 3 day
# [3] = 1503 mg/kg, 120 h, dose level High, time 5 day
smiles,measurement,setting,value
Cl.NC[C@H]1CC[C@H](C(=O)Oc2ccc(CCC(=O)O)cc2)CC1 [CETRAXATE HYDROCHLORIDE],ABSOLUTE BASOPHIL,[1],0 CELLS/uL
same,ABSOLUTE EOSINOPHIL,[1],157.33 CELLS/uL
same,ABSOLUTE LYMPHOCYTE,[1],16804.67 CELLS/uL
same,ABSOLUTE MONOCYTE,[1],401.67 CELLS/uL
same,ABSOLUTE SEGMENTED NEUTROPHIL,[1],1803 CELLS/uL
same,BASOPHIL,[1],0%
same,EOSINOPHIL,[1],0.67%
same,ERYTHROCYTE COUNT,[1],5.83 x10E6/uL
same,HEMATOCRIT,[1],37.17%
same,HEMOGLOBIN,[1],13.9 G/DL
same,LEUKOCYTE COUNT,[1],19.17 x10E3/uL
same,LYMPHOCYTE,[1],88.33%
same,MEAN CORPUSCULAR HEMOGLOBIN,[1],23.87 pg
same,MEAN CORPUSCULAR HEMOGLOBIN CONCENTRATION,[1],37.4 G/DL
same,MEAN CORPUSCULAR VOLUME,[1],63.73 fL
same,MONOCYTE,[1],2%
same,NEUTROPHIL,[1],9%
same,NUCLEATED RED BLOOD CELLS,[1],0 /100WBC
same,PLATELET COUNT,[1],1287.67 x10E3/uL
same,ALANINE AMINOTRANSFERASE,[1],53.67 u/L
same,ALBUMIN,[1],4.23 G/DL
same,ALKALINE PHOSPHATASE,[1],376.33 u/L
same,ASPARTATE AMINOTRANSFERASE,[1],93.67 u/L
same,BLOOD UREA NITROGEN,[1],19.33 mg/dL
same,CARBON DIOXIDE,[1],27 mmol/L
same,CHLORIDE,[1],104.67 MEQ/L
same,CHOLESTEROL,[1],78.67 mg/dL
same,CREATINE PHOSPHOKINASE,[1],449.67 u/L
same,CREATININE,[1],0.23 mg/dL
same,GLUCOSE,[1],160.33 mg/dL
same,LACTATE DEHYDROGENASE,[1],370.33 u/L
same,LIPASE,[1],9.67 u/L
same,PHOSPHORUS,[1],13.2 mg/dL
same,POTASSIUM,[1],6.82 MEQ/L
same,SODIUM,[1],143.93 MEQ/L
same,TOTAL BILIRUBIN,[1],0.17 mg/dL
same,TOTAL PROTEIN,[1],5.97 G/DL
same,URIC ACID,[1],2.07 mg/dL
same,ABSOLUTE BASOPHIL,[2],0 CELLS/uL
same,ABSOLUTE EOSINOPHIL,[2],121 CELLS/uL
same,ABSOLUTE LYMPHOCYTE,[2],13133.33 CELLS/uL
same,ABSOLUTE MONOCYTE,[2],333 CELLS/uL
same,ABSOLUTE SEGMENTED NEUTROPHIL,[2],979.33 CELLS/uL
same,BASOPHIL,[2],0%
same,EOSINOPHIL,[2],1%
same,ERYTHROCYTE COUNT,[2],5.73 x10E6/uL
same,HEMATOCRIT,[2],36.13%
same,HEMOGLOBIN,[2],13.17 G/DL
same,LEUKOCYTE COUNT,[2],14.57 x10E3/uL
same,LYMPHOCYTE,[2],90%
same,MEAN CORPUSCULAR HEMOGLOBIN,[2],23.03 pg
same,MEAN CORPUSCULAR HEMOGLOBIN CONCENTRATION,[2],36.43 G/DL
same,MEAN CORPUSCULAR VOLUME,[2],63.13 fL
same,MONOCYTE,[2],2.33%
same,NEUTROPHIL,[2],6.67%
same,NUCLEATED RED BLOOD CELLS,[2],0.33 /100WBC
same,PLATELET COUNT,[2],1198.67 x10E3/uL
same,ALANINE AMINOTRANSFERASE,[2],68 u/L
same,ALBUMIN,[2],4.1 G/DL
same,ALKALINE PHOSPHATASE,[2],375.67 u/L
same,ASPARTATE AMINOTRANSFERASE,[2],167.67 u/L
same,BLOOD UREA NITROGEN,[2],17.67 mg/dL
same,CARBON DIOXIDE,[2],25 mmol/L
same,CHLORIDE,[2],101.33 MEQ/L
same,CHOLESTEROL,[2],63.67 mg/dL
same,CREATINE PHOSPHOKINASE,[2],4593 u/L
same,CREATININE,[2],0.28 mg/dL
same,GLUCOSE,[2],200 mg/dL
same,LACTATE DEHYDROGENASE,[2],387 u/L
same,LIPASE,[2],10.33 u/L
same,PHOSPHORUS,[2],12.87 mg/dL
same,POTASSIUM,[2],6.87 MEQ/L
same,SODIUM,[2],143.37 MEQ/L
same,TOTAL BILIRUBIN,[2],0.3 mg/dL
same,TOTAL PROTEIN,[2],5.53 G/DL
same,URIC ACID,[2],2.37 mg/dL
same,ABSOLUTE BASOPHIL,[3],0 CELLS/uL
same,ABSOLUTE EOSINOPHIL,[3],225.33 CELLS/uL
same,ABSOLUTE LYMPHOCYTE,[3],13517.67 CELLS/uL
same,ABSOLUTE MONOCYTE,[3],404.33 CELLS/uL
same,ABSOLUTE SEGMENTED NEUTROPHIL,[3],1186 CELLS/uL
same,BASOPHIL,[3],0%
same,EOSINOPHIL,[3],1.33%
same,ERYTHROCYTE COUNT,[3],6.38 x10E6/uL
same,HEMATOCRIT,[3],39.27%
same,HEMOGLOBIN,[3],14.57 G/DL
same,LEUKOCYTE COUNT,[3],15.33 x10E3/uL
same,LYMPHOCYTE,[3],88.33%
same,MEAN CORPUSCULAR HEMOGLOBIN,[3],22.83 pg
same,MEAN CORPUSCULAR HEMOGLOBIN CONCENTRATION,[3],37.13 G/DL
same,MEAN CORPUSCULAR VOLUME,[3],61.57 fL
same,MONOCYTE,[3],2.67%
same,NEUTROPHIL,[3],7.67%
same,NUCLEATED RED BLOOD CELLS,[3],0 /100WBC
same,PLATELET COUNT,[3],1170.67 x10E3/uL
same,ALANINE AMINOTRANSFERASE,[3],59 u/L
same,ALBUMIN,[3],4.47 G/DL
same,ALKALINE PHOSPHATASE,[3],424.33 u/L
same,ASPARTATE AMINOTRANSFERASE,[3],93.33 u/L
same,BLOOD UREA NITROGEN,[3],17 mg/dL
same,CARBON DIOXIDE,[3],26.67 mmol/L
same,CHLORIDE,[3],105.67 MEQ/L
same,CHOLESTEROL,[3],58 mg/dL
same,CREATINE PHOSPHOKINASE,[3],497 u/L
same,CREATININE,[3],0.24 mg/dL
same,GLUCOSE,[3],175.33 mg/dL
same,LACTATE DEHYDROGENASE,[3],205.33 u/L
same,LIPASE,[3],9 u/L
same,PHOSPHORUS,[3],12.87 mg/dL
same,POTASSIUM,[3],6.66 MEQ/L
same,SODIUM,[3],144.8 MEQ/L
same,TOTAL BILIRUBIN,[3],0.2 mg/dL
same,TOTAL PROTEIN,[3],6.27 G/DL
same,URIC ACID,[3],1.93 mg/dL
